According to patent publication US20240366594A1, “Small Molecule Inhibitors of Formation of Neutrophil-Derived Extracellular Traps (NETosis) and Uses Thereof” (The Brigham and Women's Hospital, Inc., priority 2021, published 2024):

Key:
Murine neutrophils = assay: NET induction in response to nigericin in murine neutrophils; assay type: cell-based, mouse; parameters: dose or concentration left out as unconfirmed; conditions: nigericin for 3 hours; FIG. 5E
Description: (§1) FIGS. 5A-J. Class I/II HDACs drive NET formation. • A) Quantification of extracellular DNA released by neutrophils treated, or not, with 1 μM GSK484 for 1 h and then stimulated with 1 μM PMA for 4 hours. Unstimulated, neutrophils not treated with drugs were used as a control. • B) Freshly purified human neutrophils were treated with the indicated HDAC inhibitors at different doses (0.08, 0.4, 2 and 10 μM) for 1 hour. Extracellular DNA release was assessed in the supernatant 3 hours after PMA stimulation. The dotted line represents the amount of DNA released from neutrophils treated with PMA alone. […] NETosis induction was measured as level of anti-CitH3 fluorescent signal. […] NET induction was measured as in (C). […] NETosis induction was measured as level of anti-CitH3 fluorescent signal. […] NET induction was measured as in (F). • H, I) Freshly isolated neutrophils from two different donors were treated with different doses of ricolinostat, citarinostat (10, 2, 0.4, 0.08 μM) or GSK484 (10, 5, 2 μM) for 1 h and then stimulated with 1 μM PMA. NET induction was measured as level of anti-CitH3 fluorescent signal (H) and by microscopy as number of cells positive for CitH3 signal per field of view (FOV) (I). […] NET induction was measured as level of anti-CitH3 fluorescent signal. […] Statistics were calculated using One-way ANOVA (A, E, I) and Two-way ANOVA (B, F, G, H, L). […]

[1] = test system: neutrophils that lack HDAC6; assay: NET induction in PMA-stimulated neutrophils from HDAC6KO mice; assay type: cell-based, mouse; conditions: ricolinostat 10, 2, 0.4, 0.08 μM, then PMA; FIG. 5G
Description: as §1

For O=C(CCCCCCNC(=O)c1cnc(N(c2ccccc2)c2ccccc2)nc1)NO [ricolinostat], the “NET induction in response to nigericin (anti-CitH3 signal)” value (Murine neutrophils) was “inhibited NET induction” and the “NET induction in HDAC6-lacking neutrophils” value [1] was “remained sensitive”.
